In paper PMC5320518, “Novel Liver-targeted conjugates of Glycogen Phosphorylase Inhibitor PSN-357 for the Treatment of Diabetes: Design, Synthesis, Pharmacokinetic and Pharmacological Evaluations” (Scientific Reports, 2017):
Structures can show the parent of a compound that is named as a salt. Where two headings read alike, the source gives them in different places.

How the values were obtained:
[1] = biological target: T1, rabbit muscle GPa (RMGPa) (Oryctolagus cuniculus, UniProt P00489); experiment: RMGPa inhibition assay (phosphate release from glucose-1-phosphate); type: biochemical; settings: for IC50: mean ± S.D. of three determinations, NI means no inhibition
T1 sequence (P00489 2-843 limits assumed): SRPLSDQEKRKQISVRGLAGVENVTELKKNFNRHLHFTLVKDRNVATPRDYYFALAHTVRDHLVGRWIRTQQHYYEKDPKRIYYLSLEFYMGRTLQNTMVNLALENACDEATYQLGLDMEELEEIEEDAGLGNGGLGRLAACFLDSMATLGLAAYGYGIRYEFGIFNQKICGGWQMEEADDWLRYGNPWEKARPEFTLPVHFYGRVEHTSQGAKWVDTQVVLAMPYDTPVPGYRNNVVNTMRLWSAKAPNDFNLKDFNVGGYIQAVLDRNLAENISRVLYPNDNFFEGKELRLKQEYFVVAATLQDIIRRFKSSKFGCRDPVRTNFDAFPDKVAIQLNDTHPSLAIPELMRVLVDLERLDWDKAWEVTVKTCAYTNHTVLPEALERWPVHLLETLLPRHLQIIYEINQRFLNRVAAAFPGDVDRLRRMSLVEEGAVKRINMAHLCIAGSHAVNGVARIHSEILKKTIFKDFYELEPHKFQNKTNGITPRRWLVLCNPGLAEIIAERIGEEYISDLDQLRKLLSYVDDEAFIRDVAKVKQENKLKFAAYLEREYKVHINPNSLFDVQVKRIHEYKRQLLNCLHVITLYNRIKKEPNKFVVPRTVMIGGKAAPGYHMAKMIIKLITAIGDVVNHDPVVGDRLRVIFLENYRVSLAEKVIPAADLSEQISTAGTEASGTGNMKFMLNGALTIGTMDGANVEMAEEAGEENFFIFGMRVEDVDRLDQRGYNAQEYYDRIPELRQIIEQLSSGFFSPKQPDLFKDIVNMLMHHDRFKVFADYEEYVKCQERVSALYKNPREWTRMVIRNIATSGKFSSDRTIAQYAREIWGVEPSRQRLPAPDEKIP
Method: All the compounds were evaluated for their inhibitory activity against rabbit muscle GPa (RMGPa). The activity of RMGPa was measured through detecting the release of phosphate from glucose-1-phosphate in the direction of glycogen synthesis. CP-91149, a well-known allosteric GP inhibitor, which shares the same binding site with PSN-357, was used as the positive control and the results are summarized in Table 1[21]. […] This remarkable loss of activity was probably due to the direct steric interference by such bulky substituent of cholic acid group. […] The results is consistent with the SARs of PSN-357 that the hydroxyl of piperidine is not an essential group for the GP inhibitory activity that could be modified slightly.
The inhibitory activity of the test compounds against rabbit muscle glycogen phosphorylase a (GPa) was monitored using microplate reader (BIO-RAD) based on the published method. In brief, GPa activity was measured in the direction of glycogen synthesis by the release of phosphate from glucose-1-phosphate. Each test compound was dissolved in DMSO and diluted at different concentrations for IC50 determination. The enzyme was added into 100 μL of buffer containing 50 mM Hepes (pH = 7.2), 100 mM KCl, 2.5 mM MgCl2, 0.5 mM glucose-1-phosphate, 1 mg/mL glycogen and the test compound in 96-well microplates (Costar). After the addition of 150 μL of 1 M HCl containing 10 mg/mL ammonium molybdate and 0.38 mg/mL malachite green, reactions were run at 22 °C for 25 min, and then the phosphate absorbance was measured at 655 nm. The IC50 values were estimated by fitting the inhibition data to a dose-dependent curve using a logistic derivative equation.

isolated rat hepatocytes = experiment: Glycogenolysis inhibition in isolated rat hepatocytes; type: cell-based; settings: mean ± S.D. of three, NI means no inhibition
From the text: (§1) To evaluate the effects of all compounds in cells, the glycogenolysis assays were established in both rat and human liver cells based on the published method. […] The inhibitory activities of the derivatives of PSN-357 (e.g. 25–28) were also explored. It is not surprising that the derivatives still retained micromolar inhibitory activities. Introduction of steric bulks to the hydroxyl group (e.g. 33, 40, 42, 48) led to a complete loss of activity. Data analysis indicated no clear SAR for the substitutents in the cell-based assays.
(§2) The inhibition of hepatic glycogenolysis was monitored by the measurement of liver glycogen, which was done quantitatively by the anthrone reagent (Sigma) colorimetric method based on the published method. Isolated rat hepatocytes or HepG2 cells (Sigma) were treated with the test compound or DMSO solvent (final concentration, 0.10%), followed by 60-min incubation with 0.3 nM glucagon (GGN). Assays were terminated by centrifugation, and cells were digested with 30% KOH followed by glycogen determination. The IC50 values were estimated by fitting the inhibition data to a dose-dependent curve using a logistic derivative equation.

HepG2 cells = experiment: Glycogenolysis inhibition in HepG2 cells; type: cell-based, human; settings: read-out: IC50 (glycogenolysis inhibition, HepG2 cells)
From the text: as §1, §2

[2] = Stability in mouse liver microsomes (MLM); type: in vitro ADME; settings: C57BL/6, pH 7.4, n = 3
Method: Additionally, the compounds’ stability in microsome were evaluated by measuring the rate of compounds consumpation in MLM and the results are shown in Table 3.
The microsomal pellet was suspended in potassium phosphate buffer (100 mM, pH 7.4), 10 μM test compound or positive control (diclofenac) was added. Liver microsomes from C57BL/6 mice (BD Gentest) were pooled. The mixture of microsome solution and compound was incubated at 37 °C for about 10 min in the presence of a NADPH-regenerating system, consisting of 0.02 M DL-isocitric acid (trisodium salt), 0.1 mg/mL isocitrate dehydrogenase and 1 mM NADPH. The addition of ice-cold CH3CN (including 100 ng/mL tolbutamide as internal standard) terminated the reaction. The mixture was vortexed for approx (30 s), centrifuged (20 min, 4000 rpm) and the supernatant was collected and analysed by LC-MS/MS method.

[3] = Stability in simulated intestinal fluid (SIF); type: in vitro ADME; settings: SIF pH 6.79 with pancreatin, 2 μM, 37 °C
Method: (§3) All the conjugates were tested for their chemical and metabolic stability in multiple assays, including simulated gastric fluid (SGF), simulated interstinal fluid (SIF), mouse plasma, and mouse liver microsome (MLM).
(§4) For the stability in SGF (Fig. 8) and SIF (Fig. 9), the conjugates could be divided into three groups: (1) stable conjugates 2, 6 and 9. […] The two conjugates were degraded within 6 h and 1 h in SGF and SIF, respectively, with alomost no conjugates at the end of the 24 h incubation in both SGF and SIF; (3) complicated conjugates 3, 4, 5 and 8.
(§5) The simulated gastrointestinal fluids were prepared according to USP specifications. For SGF, NaCl (0.12 g) and pepsin (0.18 g, from porcine stomach mucosa) was dissolved in HCl (0.42 mL) and sufficient H2O was added to make 60 mL. The pH of the test solution was determined as 1.21 by pH meter. For the SIF, KH2PO4 (0.408 g) and pancreatin (0.6 g, from porcine pancreas) was dissolved in H2O (60 mL). The pH of the test solution was determined as 6.79 by pH meter. Each test compound was dissolved in DMSO and diluted to a final concentration of 2 μM in SIF and SGF. The final concentrations of DMSO and CH3CN in the incubation mixture were 0.2% and 0.45%. Aliquots of these solutions were pipetted into glass tubes, and placed in a 37 °C shaking water bath. Test samples at corresponding time point (1, 2, 6, 24 h) were removed at the end of incubation time and immediately mixed with 800 μL of cold acetonitrile containing 500 ng/mL tolbutamide (internal standard). Samples were subjected to centrifuge at 4000 rpm, 4 °C for 20 min. Aliquots 60 μL of supernatant was combined with 120 μL water for LC-MS/MS analysis.

[4] = Stability in simulated gastric fluid (SGF); type: in vitro ADME; settings: SGF pH 1.21 with pepsin, 2 μM, 37 °C, 24 h incubation
Method: as §3, §4, §5

[5] = Hepatocyte, 1 h, isolated rat hepatocytes, 60-min incubation with 0.3 nM glucagon, read-out: IC50 (glycogenolysis inhibition, rat hepatocytes)
[6] = Homo sapiens, HepG2, 1 h, HepG2 cells, 60-min incubation with 0.3 nM glucagon, mean ± S.D. of three, NI means no inhibition

| SMILES | melting point [°C] | IC50 [1] [µM] | IC50 (isolated rat hepatocytes; [5]) [µM] | IC50 (HepG2 cells; [6]) [µM] | also measured |
| --- | --- | --- | --- | --- | --- |
| CC(C)[C@H](N)C(=O)OC1CCN(C(=O)[C@H](Cc2ccc(F)cc2)NC(=O)c2cc3cc(Cl)ncc3[nH]2)CC1 (as salt: hydrochloride) [Compound 27] | 214 to 216 | – | – | – | – |
| CN(C)C(=O)[C@H](O)[C@H](Cc1ccccc1)NC(=O)c1cc2cc(Cl)ccc2[nH]1 [CP-91149, reference compound] | – | 0.09 ± 0.04 | – | – | IC50 (isolated rat hepatocytes; isolated rat hepatocytes, 60-min incubation with 0.3 nM glucagon, read-out: IC50 (glycogenolysis inhibition, rat hepatocytes)): 3.08 ± 1.16 µM; IC50 (HepG2 cells; HepG2 cells, 60-min incubation with 0.3 nM glucagon, mean ± S.D. of three, NI means no inhibition): 2.53 ± 0.78 µM |
| CC(C)(C)OC(=O)C[C@H](NC(=O)OC(C)(C)C)C(=O)OC1CCN(C(=O)[C@H](Cc2ccc(F)cc2)NC(=O)c2cc3cc(Cl)ncc3[nH]2)CC1 [Compound 25] | 118 to 120 | 0.81 ± 0.077 | 10.2 ± 1.13 | 15.1 ± 4.11 | – |
| C[C@H](N)C(=O)OC1CCN(C(=O)[C@H](Cc2ccc(F)cc2)NC(=O)c2cc3cc(Cl)ncc3[nH]2)CC1 [Compound 26] | – | 0.56 ± 0.043 | 9.79 ± 9.65 | 6.99 ± 2.1 | – |
| CC(C)[C@H](N)C(=O)OC1CCN(C(=O)[C@H](Cc2ccc(F)cc2)NC(=O)c2cc3cc(Cl)ncc3[nH]2)CC1 [Compound 27] | – | 0.88 ± 0.17 | 14.7 ± 4.99 | 16.8 ± 3.71 | – |
| N[C@@H](CO)C(=O)OC1CCN(C(=O)[C@H](Cc2ccc(F)cc2)NC(=O)c2cc3cc(Cl)ncc3[nH]2)CC1 [Compound 28] | – | 0.52 ± 0.01 | 13.6 ± 0.23 | 2.88 ± 0.16 | fold less potent than PSN-357 (RMGPa) ([1]; vs PSN-357): approximately 1.25 fold |
| CC(C)[C@H](NC(=O)OC(C)(C)C)C(=O)N[C@@H](C)C(=O)OC1CCN(C(=O)[C@H](Cc2ccc(F)cc2)NC(=O)c2cc3cc(Cl)ncc3[nH]2)CC1 [Compound 33] | 151 to 153 | 27 ± 6.39 | 11.1 ± 3.67 | – | – |
| CC(C)(C)OC(=O)N[C@@H](Cc1ccccc1)C(=O)N[C@@H](CCCCNC(=O)OCC1c2ccccc2-c2ccccc21)C(=O)OC1CCN(C(=O)[C@H](Cc2ccc(F)cc2)NC(=O)c2cc3cc(Cl)ncc3[nH]2)CC1 [Compound 40] | – | 3.44 ± 0.22 | 38.4 ± 5.76 | 33.6 ± 12.2 | – |
| CC(CCC(=O)NC(Cc1ccccc1)C(=O)NC(CCCCNC(=O)OCC1c2ccccc2-c2ccccc21)C(=O)OC1CCN(C(=O)C(Cc2ccc(F)cc2)NC(=O)c2cc3cc(Cl)ncc3[nH]2)CC1)C1CCC2C3C(O)CC4CC(O)CCC4(C)C3CC(O)C12C (centres unmarked) [Compound 42] | 149 to 151 | 15.4 ± 0.89 | 5.56 ± 2.41 | – | IC50 (HepG2 cells; Homo sapiens, HepG2, 1 h): 180 ± 51.2 µM |
| CC(C)(C)OC(=O)c1ccc(/N=N/c2ccccc2CCC(=O)OC2CCN(C(=O)[C@H](Cc3ccc(F)cc3)NC(=O)c3cc4cc(Cl)ncc4[nH]3)CC2)cc1 [Compound 47] | 123 to 125 | – | 97.6 ± 1.1 | – | – |
| O=C(CCc1ccccc1/N=N/c1ccc(C(=O)O)cc1)OC1CCN(C(=O)[C@H](Cc2ccc(F)cc2)NC(=O)c2cc3cc(Cl)ncc3[nH]2)CC1 [Compound 48] | 127 to 129 | 3.11 ± 0.05 | 35 ± 3.46 | 9.18 ± 7.42 | – |
| C[C@H](NC(=O)CC[C@@H](C)[C@H]1CC[C@H]2[C@@H]3[C@H](O)C[C@@H]4C[C@H](O)CC[C@]4(C)[C@H]3C[C@H](O)[C@]12C)C(=O)OC1CCN(C(=O)[C@H](Cc2ccc(F)cc2)NC(=O)c2cc3cc(Cl)ncc3[nH]2)CC1 [Conjugate 3] | – | 40.5 ± 15.7 | – | – | CLint scaled at 10 μM [2]: 200 mL/min/kg; half-life at 10 μM [2]: 27.4 min; microsomal CLint at 10 μM [2]: 50.6 µL/min/mg; time within which degraded in SIF [3]: ≤ 1 h; stability in SGF (in words) [4]: relatively stable; IC50 (isolated rat hepatocytes; Rattus norvegicus, Hepatocyte, 1 h, read-out: IC50 (glycogenolysis inhibition, rat hepatocytes), isolated rat hepatocytes, 60-min incubation with 0.3 nM glucagon): 632 ± 99.4 µM |
| O=C(O)Cc1ccccc1Nc1c(Cl)cccc1Cl [Diclofenac, diclofenac, reference compound] | – | – | – | – | CLint scaled at 10 μM [2]: 208 mL/min/kg; half-life at 10 μM [2]: 26.3 min; microsomal CLint at 10 μM [2]: 52.6 µL/min/mg |
